Assay results from patent US20240100170A1, “CYCLIC-AMP RESPONSE ELEMENT BINDING PROTEIN (CBP) AND/OR ADENOVIRAL E1A BINDING PROTEIN OF 300 KDA (P300) DEGRADATION COMPOUNDS AND METHODS OF USE” (CULLGEN (SHANGHAI), INC., priority 2020, published 2024).
Like-named read-outs stand apart in the source and are kept apart here.

What was measured:
[1] = system: LNCaP prostate cancer cell; experiment: LNCaP cell viability (CellTiter-Glo); assay type: cell-based; conditions: Homo sapiens, 72 h, LNCaP cell viability, 3 days, CellTiter-Glo
Procedure: LNCaP cells seeded in 96-well plates were treated with 10 μM GNE-781 or selected bivalent compounds, i.e. P-001, P-002, and P-019, following a 12-point 3-fold serial dilution. Three days after treatment, cell viability was determined using the CellTiter-Glo kit (Promega) following manufacturer's instructions. Cell viability was normalized to the mean values of 3 replicates of untreated cells. Dose-dependent response was analyzed following the least-squares non-linear regression method using the GraphPad Prism 5.0 software.
LNCaP (clone FGC), 22RV1 and other cells were cultured at 37° C. with 5% CO 2 in RPMI 1640 Medium supplemented with 10% fetal bovine serum. Cells were authenticated using the short tandem repeat (STR) assays. Mycoplasma test results were negative.
Cells were seeded at a density of 5000 cells per well in 96-well assay plates and treated with test compounds following a 12-point 3-fold serial dilution. Three days later, cell viability was determined using the CellTiter-Glo assay kit according to the manufactureR's instructions. The dose-response curves were determined and IC50 values were calculated using the GraphPad Prism software following a nonlinear regression (least squares fit) method.

[2] = target: P300 (Homo sapiens, UniProt Q09472); experiment: percentage of inhibition (degradation) of p300 at 10 nM, Tables 2-4; assay type: cell-based; design: LNCaP or 22RV1 cells that express CBP/P300 proteins were treated with GNE-781 or the bivalent compounds; endogenous in cells; host or cells: LNCaP or 22RV1 (not given); conditions: for inhibition at 0.01 µM: read-out: Degradation (10 nM); for Degradation (10 nM): Table 3
P300, sequence (Q09472 whole entry): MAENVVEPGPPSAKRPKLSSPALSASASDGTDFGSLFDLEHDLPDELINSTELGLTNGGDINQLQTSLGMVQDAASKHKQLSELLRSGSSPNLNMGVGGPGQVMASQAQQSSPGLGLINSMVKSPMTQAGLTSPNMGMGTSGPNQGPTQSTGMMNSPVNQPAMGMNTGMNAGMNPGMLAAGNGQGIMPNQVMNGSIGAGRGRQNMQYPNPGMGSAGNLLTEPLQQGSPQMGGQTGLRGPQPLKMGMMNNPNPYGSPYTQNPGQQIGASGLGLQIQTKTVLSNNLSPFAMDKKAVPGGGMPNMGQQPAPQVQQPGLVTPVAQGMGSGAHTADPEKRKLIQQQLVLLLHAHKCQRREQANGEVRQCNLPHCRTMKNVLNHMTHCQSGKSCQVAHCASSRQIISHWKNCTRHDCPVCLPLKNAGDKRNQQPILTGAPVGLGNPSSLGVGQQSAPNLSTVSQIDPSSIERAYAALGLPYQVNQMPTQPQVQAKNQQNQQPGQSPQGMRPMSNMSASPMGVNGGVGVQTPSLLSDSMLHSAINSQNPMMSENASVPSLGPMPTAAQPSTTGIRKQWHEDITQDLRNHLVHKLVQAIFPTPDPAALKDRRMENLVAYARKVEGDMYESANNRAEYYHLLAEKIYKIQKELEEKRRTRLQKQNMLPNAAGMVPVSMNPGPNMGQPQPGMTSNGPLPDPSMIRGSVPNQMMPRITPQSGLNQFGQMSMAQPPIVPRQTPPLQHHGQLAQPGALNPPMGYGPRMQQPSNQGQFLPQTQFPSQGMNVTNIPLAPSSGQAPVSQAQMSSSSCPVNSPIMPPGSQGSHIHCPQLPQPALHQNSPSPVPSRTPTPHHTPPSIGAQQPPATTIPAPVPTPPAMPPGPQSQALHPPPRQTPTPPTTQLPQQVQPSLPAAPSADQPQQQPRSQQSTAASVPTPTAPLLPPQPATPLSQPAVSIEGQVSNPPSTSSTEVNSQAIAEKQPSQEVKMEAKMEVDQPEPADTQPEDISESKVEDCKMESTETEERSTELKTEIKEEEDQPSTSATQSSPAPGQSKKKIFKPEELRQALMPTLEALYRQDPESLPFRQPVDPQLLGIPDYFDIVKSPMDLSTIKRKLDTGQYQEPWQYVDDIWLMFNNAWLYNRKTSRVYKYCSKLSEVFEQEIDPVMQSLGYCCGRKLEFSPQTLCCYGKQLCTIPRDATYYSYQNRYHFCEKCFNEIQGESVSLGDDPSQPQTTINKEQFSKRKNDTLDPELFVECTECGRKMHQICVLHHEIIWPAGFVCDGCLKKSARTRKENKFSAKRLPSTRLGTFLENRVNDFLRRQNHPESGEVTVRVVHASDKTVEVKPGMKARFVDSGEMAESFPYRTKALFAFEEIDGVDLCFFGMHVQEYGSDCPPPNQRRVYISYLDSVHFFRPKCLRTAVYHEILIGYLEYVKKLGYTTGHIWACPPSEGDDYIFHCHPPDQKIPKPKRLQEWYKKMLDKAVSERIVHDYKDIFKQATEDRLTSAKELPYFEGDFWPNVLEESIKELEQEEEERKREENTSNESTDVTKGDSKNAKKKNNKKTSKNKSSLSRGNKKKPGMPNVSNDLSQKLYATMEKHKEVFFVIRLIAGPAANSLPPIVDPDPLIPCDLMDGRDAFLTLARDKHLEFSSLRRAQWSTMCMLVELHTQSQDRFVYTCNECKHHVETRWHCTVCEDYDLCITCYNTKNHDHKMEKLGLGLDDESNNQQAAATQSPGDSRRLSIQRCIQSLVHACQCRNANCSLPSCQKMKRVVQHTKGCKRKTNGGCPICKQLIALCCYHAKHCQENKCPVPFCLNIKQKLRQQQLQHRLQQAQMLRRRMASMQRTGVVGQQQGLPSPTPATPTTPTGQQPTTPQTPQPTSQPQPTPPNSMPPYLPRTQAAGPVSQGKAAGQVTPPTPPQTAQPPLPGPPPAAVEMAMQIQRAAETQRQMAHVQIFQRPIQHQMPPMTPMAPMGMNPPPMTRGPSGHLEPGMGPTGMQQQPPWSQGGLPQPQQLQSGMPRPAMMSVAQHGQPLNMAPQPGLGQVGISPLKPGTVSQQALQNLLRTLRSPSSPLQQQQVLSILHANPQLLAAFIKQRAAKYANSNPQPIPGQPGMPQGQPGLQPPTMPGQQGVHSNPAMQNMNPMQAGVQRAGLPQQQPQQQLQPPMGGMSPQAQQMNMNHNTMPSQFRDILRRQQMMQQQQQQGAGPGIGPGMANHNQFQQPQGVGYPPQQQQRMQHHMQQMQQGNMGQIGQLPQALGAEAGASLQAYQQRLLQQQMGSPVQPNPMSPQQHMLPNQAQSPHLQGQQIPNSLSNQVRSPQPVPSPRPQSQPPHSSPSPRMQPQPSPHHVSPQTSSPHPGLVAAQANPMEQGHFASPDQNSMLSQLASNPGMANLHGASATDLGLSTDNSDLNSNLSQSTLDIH
Procedure: Cultured cells or tissue chunks were washed with cold PBS once and lysed in cold RIPA buffer supplemented with protease inhibitors and phosphatase inhibitors (Beyotime Biotechnology). The solutions were then incubated at 4° C. for 30 minutes with gentle agitation to fully lyse cells. Cell lysates were centrifuged at 13,000 rpm for 10 minutes at 4° C. and pellets were discarded. Total protein concentrations in the lysates were determined by BCA assays (Beyotime Biotechnology). Cell lysates were mixed with Laemmli loading buffer to 1 X and heated at 99° C. for 5 min. Proteins were resolved on SDS-PAGE and visualized by chemiluminescence. Images were taken by a ChemiDoc MP Imaging system (Bio-Rad). Protein bands were quantitated using the accompanied software provided by Bio-Rad.

SMILES	IC50 ([1]; Table 4) [nM]	inhibition at 0.01 µM ([2]; p300, 10 nM, Table 4) [%]	IC50 ([1]; Table 3) [nM]	Degradation (10 nM) ([2]; p300, 10 nM)	inhibition at 0.01 µM [2] [%]
CC(=O)N1CCc2c(c(N3CCCc4cc(-c5cnn(C)c5)c(C(F)F)cc43)nn2C2CCN(C(=O)CCN3CCN(CC#Cc4cccc5c4n(C)c(=O)n5C4CCC(=O)NC4=O)CC3)CC2)C1 (centres unmarked) [P-238, 3-(4-(3-(4-(3-(4-(5-Acetyl-3-(7-(difluoromethyl)-6-(1-methyl-1H-pyrazol-4-yl)-3,4-dihydroquinolin-1(2H)-yl)-4,5,6,7-tetrahydro-1H-pyrazolo[4,3-c]pyridin-1-yl)piperidin-1-yl)-3-oxopropyl)piperazin-1-yl)prop-1-yn-1-yl)-3-methyl-2-oxo-2,3-dihydro-1H-benzo[d]imidazol-1-yl)piperidine-2,6-dione]	81.1	20 to 50			
CC(=O)N1CCc2c(c(N3CCCc4cc(-c5cnn(C)c5)c(C(F)F)cc43)nn2C2CCN(C(=O)CCCCCCCn3c(=O)n(C4CCC(=O)NC4=O)c4ccccc43)CC2)C1 (centres unmarked) [P-135, 3-(3-(8-(4-(5-acetyl-3-(7-(difluoromethyl)-6-(1-methyl-1H-pyrazol-4-yl)-3,4-dihydroquinolin-1(2H)-yl)-4,5,6,7-tetrahydro-1H-pyrazolo[4,3-c]pyridin-1-yl)piperidin-1-yl)-8-oxooctyl)-2-oxo-2,3-dihydro-1H-benzo[d]imidazol-1-yl)piperidine-2,6-dione]			0.7	A (A: Degradation ≥ 80%)	
CC(=O)N1CCc2c(c(N3CCCc4cc(-c5cnn(C)c5)c(C(F)F)cc43)nn2C2CCN(C(=O)CCN3CCN(CCCc4cccc5c4n(C)c(=O)n5C4CCC(=O)NC4=O)CC3)CC2)C1 (centres unmarked) [P-239, 3-(4-(3-(4-(3-(4-(5-Acetyl-3-(7-(difluoromethyl)-6-(1-methyl-1H-pyrazol-4-yl)-3,4-dihydroquinolin-1(2H)-yl)-4,5,6,7-tetrahydro-1H-pyrazolo[4,3-c]pyridin-1-yl)piperidin-1-yl)-3-oxopropyl)piperazin-1-yl)propyl)-3-methyl-2-oxo-2,3-dihydro-1H-benzo[d]imidazol-1-yl)piperidine-2,6-dione]	263	< 20			
CC(=O)N1CCc2c(c(N3CCCc4cc(-c5cnn(C)c5)c(C(F)F)cc43)nn2C2CCN(CCN3CCOC(CNc4cccc5c4C(=O)N(C4CCC(=O)NC4=O)C5)C3)CC2)C1 (centres unmarked) [P-198, 3-(7-(((4-(2-(4-(5-acetyl-3-(7-(difluoromethyl)-6-(1-methyl-1H-pyrazol-4-yl)-3,4-dihydroquinolin-1(2H)-yl)-4,5,6,7-tetrahydro-1H-pyrazolo[4,3-c]pyridin-1-yl)piperidin-1-yl)ethyl)morpholin-2-yl)methyl)amino)-1-oxoisoindolin-2-yl)piperidine-2,6-dione]	2.4				> 80
CC(=O)N1CCc2c(c(N3CCCc4cc(-c5cnn(C)c5)c(C(F)F)cc43)nn2C2CCN(CCN3CCC(COc4cccc5c4C(=O)N(C4CCC(=O)NC4=O)C5=O)CC3)CC2)C1 (centres unmarked) [P-167, 4-((1-(2-(4-(5-acetyl-3-(7-(difluoromethyl)-6-(1-methyl-1H-pyrazol-4-yl)-3,4-dihydroquinolin-1(2H)-yl)-4,5,6,7-tetrahydro-1H-pyrazolo[4,3-c]pyridin-1-yl)piperidin-1-yl)ethyl)piperidin-4-yl)methoxy)-2-(2,6-dioxopiperidin-3-yl)isoindoline-1,3-dione]			92	D (D: Degradation < 20%)	
CC(=O)N1CCc2c(c(N3CCCc4cc(-c5cnn(C)c5)c(C(F)F)cc43)nn2C2CCN(C(=O)CCCN3CCC(CCc4cccc5c4n(C)c(=O)n5C4CCC(=O)NC4=O)CC3)CC2)C1 (centres unmarked) [P-230, 3-(4-(2-(1-(4-(4-(5-Acetyl-3-(7-(difluoromethyl)-6-(1-methyl-1H-pyrazol-4-yl)-3,4-dihydroquinolin-1(2H)-yl)-4,5,6,7-tetrahydro-1H-pyrazolo[4,3-c]pyridin-1-yl)piperidin-1-yl)-4-oxobutyl)piperidin-4-yl)ethyl)-3-methyl-2-oxo-2,3-dihydro-1H-benzo[d]imidazol-1-yl)piperidine-2,6-dione]	17.1	> 80			
CC(=O)N1CCc2c(c(N3CCCc4cc(-c5cnn(C)c5)c(C(F)F)cc43)nn2C2CCN(C(=O)CCCN3CCN(CC#Cc4cccc5c4n(C)c(=O)n5C4CCC(=O)NC4=O)CC3)CC2)C1 (centres unmarked) [P-224, 3-(4-(3-(4-(4-(4-(5-acetyl-3-(7-(difluoromethyl)-6-(1-methyl-1H-pyrazol-4-yl)-3,4-dihydroquinolin-1(2H)-yl)-4,5,6,7-tetrahydro-1H-pyrazolo[4,3-c]pyridin-1-yl)piperidin-1-yl)-4-oxobutyl)piperazin-1-yl)prop-1-yn-1-yl)-3-methyl-2-oxo-2,3-dihydro-1H-benzo[d]imidazol-1-yl)piperidine-2,6-dione]	9.9	> 80			

More lines, main results first:

IC50 ([1]; Table 4) [nM]	inhibition at 0.01 µM ([2]; p300, 10 nM, Table 4) [%]	SMILES	IC50 ([1]; Table 3) [nM]	Degradation (10 nM) ([2]; p300, 10 nM)	inhibition at 0.01 µM [2] [%]
1.4	> 80	CC(=O)N1CCc2c(c(N3CCCc4cc(-c5cnn(C)c5)c(C(F)F)cc43)nn2C2CCN(C(=O)CCCCCCNc3ccc(C(=O)NC4CCC(=O)NC4=O)c4ncccc34)CC2)C1 (centres unmarked) [P-240, 5-((7-(4-(5-acetyl-3-(7-(difluoromethyl)-6-(1-methyl-1H-pyrazol-4-yl)-3,4-dihydroquinolin-1(2H)-yl)-4,5,6,7-tetrahydro-1H-pyrazolo[4,3-c]pyridin-1-yl)piperidin-1-yl)-7-oxoheptyl)amino)-N-(2,6-dioxopiperidin-3-yl)quinoline-8-carboxamide]			
2.5	> 80	CC(=O)N1CCc2c(c(N3CCCc4cc(-c5cnn(C)c5)c(C(F)F)cc43)nn2C2CCN(C(=O)CCN3CCC(CCc4ccc5c(c4)n(C)c(=O)n5C4CCC(=O)NC4=O)CC3)CC2)C1 (centres unmarked) [P-221, 3-(5-(2-(1-(3-(4-(5-acetyl-3-(7-(difluoromethyl)-6-(1-methyl-1H-pyrazol-4-yl)-3,4-dihydroquinolin-1(2H)-yl)-4,5,6,7-tetrahydro-1H-pyrazolo[4,3-c]pyridin-1-yl)piperidin-1-yl)-3-oxopropyl)piperidin-4-yl)ethyl)-3-methyl-2-oxo-2,3-dihydro-1H-benzo[d]imidazol-1-yl)piperidine-2,6-dione]			
5.1	> 80	CC(=O)N1CCc2c(c(N3CCCc4cc(-c5cnn(C)c5)c(C(F)F)cc43)nn2C2CCN(C(=O)CNc3ccc(C(=O)NC4CCC(=O)NC4=O)c4ncccc34)CC2)C1 (centres unmarked) [P-254, 5-((2-(4-(5-acetyl-3-(7-(difluoromethyl)-6-(1-methyl-1H-pyrazol-4-yl)-3,4-dihydroquinolin-1(2H)-yl)-4,5,6,7-tetrahydro-1H-pyrazolo[4,3-c]pyridin-1-yl)piperidin-1-yl)-2-oxoethyl)amino)-N-(2,6-dioxopiperidin-3-yl)quinoline-8-carboxamide]			
6.8	> 80	CC(=O)N1CCc2c(c(N3CCCc4cc(-c5cnn(C)c5)c(C(F)F)cc43)nn2C2CCN(C(=O)CCN3CCN(CCCc4ccc5c(c4)n(C)c(=O)n5C4CCC(=O)NC4=O)CC3)CC2)C1 (centres unmarked) [P-234, 3-(5-(3-(4-(3-(4-(5-acetyl-3-(7-(difluoromethyl)-6-(1-methyl-1H-pyrazol-4-yl)-3,4-dihydroquinolin-1(2H)-yl)-4,5,6,7-tetrahydro-1H-pyrazolo[4,3-c]pyridin-1-yl)piperidin-1-yl)-3-oxopropyl)piperazin-1-yl)propyl)-3-methyl-2-oxo-2,3-dihydro-1H-benzo[d]imidazol-1-yl)piperidine-2,6-dione]			
5.5	> 80	CC(=O)N1CCc2c(c(N3CCCc4cc(-c5cnn(C)c5)c(C(F)F)cc43)nn2C2CCN(C(=O)CCN3CCC(C#Cc4ccc5c(c4)n(C)c(=O)n5C4CCC(=O)NC4=O)CC3)CC2)C1 (centres unmarked) [P-212, 3-(5-((1-(3-(4-(5-acetyl-3-(7-(difluoromethyl)-6-(1-methyl-1H-pyrazol-4-yl)-3,4-dihydroquinolin-1(2H)-yl)-4,5,6,7-tetrahydro-1H-pyrazolo[4,3-c]pyridin-1-yl)piperidin-1-yl)-3-oxopropyl)piperidin-4-yl)ethynyl)-3-methyl-2-oxo-2,3-dihydro-1H-benzo[d]imidazol-1-yl)piperidine-2,6-dione]			
1.1	> 80	CC(=O)N1CCc2c(c(N3CCCc4cc(-c5cnn(C)c5)c(C(F)F)cc43)nn2C2CCN(C(=O)CCCCCNc3ccc(C(=O)NC4CCC(=O)NC4=O)c4ncccc34)CC2)C1 (centres unmarked) [P-242, 5-((6-(4-(5-acetyl-3-(7-(difluoromethyl)-6-(1-methyl-1H-pyrazol-4-yl)-3,4-dihydroquinolin-1(2H)-yl)-4,5,6,7-tetrahydro-1H-pyrazolo[4,3-c]pyridin-1-yl)piperidin-1-yl)-6-oxohexyl)amino)-N-(2,6-dioxopiperidin-3-yl)quinoline-8-carboxamide]			
